The NIST ThermoML archive (doi:10.1016/j.tca.2018.05.007)
“And” between values parts separate entries of the source, which are not always exact repeats. Identical values can stand only once. ± gives the expanded uncertainty stated by the source.

Settings: Liquid, Rate of evaporation

OCCN(CCO)CCO [triethanolamine]
Settings | vapor or sublimation pressure
365 K | 0.000835 ± 0.00034 kPa
375 K | 0.002129 ± 0.00086 kPa and 0.002041 ± 0.00083 kPa
385 K | 0.005005 ± 0.002 kPa and 0.004526 ± 0.0018 kPa
395 K | 0.01093 ± 0.0044 kPa and 0.009521 ± 0.0039 kPa
400 K | 0.01404 ± 0.0057 kPa
405 K | 0.02229 ± 0.0091 kPa and 0.01908 ± 0.0077 kPa
410 K | 0.02726 ± 0.011 kPa
415 K | 0.04274 ± 0.017 kPa and 0.03658 ± 0.015 kPa and 0.03733 ± 0.015 kPa
420 K | 0.05078 ± 0.021 kPa
425 K | 0.07739 ± 0.031 kPa and 0.06729 ± 0.027 kPa and 0.06993 ± 0.028 kPa
430 K | 0.09108 ± 0.037 kPa and 0.0987 ± 0.04 kPa and 0.0881 ± 0.036 kPa
435 K | 0.133 ± 0.054 kPa and 0.1191 ± 0.048 kPa and 0.1259 ± 0.051 kPa
440 K | 0.1577 ± 0.064 kPa and 0.1715 ± 0.07 kPa and 0.1578 ± 0.064 kPa
445 K | 0.2176 ± 0.088 kPa and 0.2036 ± 0.083 kPa and 0.2184 ± 0.089 kPa
450 K | 0.2644 ± 0.11 kPa and 0.2908 ± 0.12 kPa and 0.2755 ± 0.11 kPa
455 K | 0.3407 ± 0.14 kPa and 0.3368 ± 0.14 kPa and 0.3662 ± 0.15 kPa
460 K | 0.4694 ± 0.19 kPa [middle of 4 runs]
465 K | 0.5116 ± 0.21 kPa and 0.5424 ± 0.22 kPa and 0.5946 ± 0.24 kPa
470 K | 0.7812 ± 0.32 kPa and 0.7818 ± 0.32 kPa
475 K | 0.9374 ± 0.38 kPa
480 K | 1.165 ± 0.47 kPa and 1.242 ± 0.51 kPa and 1.275 ± 0.52 kPa
490 K | 1.936 ± 0.79 kPa and 2.038 ± 0.83 kPa
500 K | 3.196 ± 1.3 kPa
510 K | 4.926 ± 2 kPa
515 K | 6.077 ± 2.5 kPa
